Where two headings read alike, the source gives them in different places. One block for each molecule: values may come before it.
Key:
Type in all cases: cell-based
rat α7 nAChRs = molecular target: T1, rat α7 nAChRs (Rattus norvegicus, UniProt Q05941); assay: Voltage-clamp recording in Xenopus oocytes expressing rat α7 nAChRs; settings: for Imax of ACh concentration-response in the presence of antagonist: ACh alone Imax=1; for recovery of responses to ACh alone after co-application: 5 min washout; for effect of voltage on inhibition of α7 receptors: −40 or −80 mV, 60 μM ACh; for inhibition at 1 µM: 1 μM tPyQB
T1 construct: expressed in transfected cells; host or cells: Xenopus laevis oocytes injected with subunit cRNA
T1 sequence (Q05941 23-502): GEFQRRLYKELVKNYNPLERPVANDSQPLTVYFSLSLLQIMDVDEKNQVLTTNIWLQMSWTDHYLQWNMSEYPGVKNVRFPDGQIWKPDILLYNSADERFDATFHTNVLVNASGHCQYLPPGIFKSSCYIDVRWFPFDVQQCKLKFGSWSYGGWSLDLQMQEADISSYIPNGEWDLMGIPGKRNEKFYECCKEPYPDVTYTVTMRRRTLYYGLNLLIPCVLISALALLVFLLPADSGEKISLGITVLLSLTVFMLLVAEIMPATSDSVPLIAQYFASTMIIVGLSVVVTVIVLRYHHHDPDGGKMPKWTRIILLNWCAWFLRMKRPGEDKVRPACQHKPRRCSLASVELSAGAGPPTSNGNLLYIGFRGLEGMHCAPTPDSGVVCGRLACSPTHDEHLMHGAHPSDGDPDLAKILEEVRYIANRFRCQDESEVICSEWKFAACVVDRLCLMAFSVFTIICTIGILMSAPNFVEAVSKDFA
Method: (§1) For recombinant nAChR studies, mature (>9 cm) female Xenopus laevis African frogs (Nasco, Ft. Atkinson, Wis.) were used as a source of oocytes. Prior to surgery, frogs were anesthetized by placing the animal in a 1.5 g/l solution of MS222 (3-aminobenzoic acid ethyl ester) for 30 min. Oocytes were removed from an incision made in the abdomen. All procedures involving frogs were approved by the University of Florida Institutional Animal Care and Use Committee (IACUC).
(§2) Stage 5 oocytes were then isolated and injected with 50 n1 (5-20 ng) each of the appropriate subunit cRNAs. The rat neuronal nAChR clones were obtained from Dr. Jim Boulter (UCLA, Los Angeles, Calif.). After linearization and purification of cloned cDNAs, RNA transcripts were prepared in vitro using the appropriate mMessage mMachine kit from Ambion (Austin, Tex.).
(§3) Experiments were conducted using OpusXpress 6000A (Molecular Devices, Union City Calif.). […] Net charge values were used to report inhibitory effects. […] Means and standard errors (SEM) were calculated from the normalized responses of at least four oocytes for each experimental concentration. Concentration-response data were fit to the Hill equation assuming negative Hill slopes.

rat α4β2 nAChRs = molecular target: T2, rat α4β2 nAChRs (Rattus norvegicus, UniProt P09483+P12390); assay: Voltage-clamp recording in Xenopus oocytes expressing rat α4β2 nAChRs; settings: for recovery of responses to ACh alone after co-application: 5 min washout
T2 construct: expressed in transfected cells; host or cells: Xenopus laevis oocytes injected with subunit cRNAs
T2 sequence (P09483 31-630): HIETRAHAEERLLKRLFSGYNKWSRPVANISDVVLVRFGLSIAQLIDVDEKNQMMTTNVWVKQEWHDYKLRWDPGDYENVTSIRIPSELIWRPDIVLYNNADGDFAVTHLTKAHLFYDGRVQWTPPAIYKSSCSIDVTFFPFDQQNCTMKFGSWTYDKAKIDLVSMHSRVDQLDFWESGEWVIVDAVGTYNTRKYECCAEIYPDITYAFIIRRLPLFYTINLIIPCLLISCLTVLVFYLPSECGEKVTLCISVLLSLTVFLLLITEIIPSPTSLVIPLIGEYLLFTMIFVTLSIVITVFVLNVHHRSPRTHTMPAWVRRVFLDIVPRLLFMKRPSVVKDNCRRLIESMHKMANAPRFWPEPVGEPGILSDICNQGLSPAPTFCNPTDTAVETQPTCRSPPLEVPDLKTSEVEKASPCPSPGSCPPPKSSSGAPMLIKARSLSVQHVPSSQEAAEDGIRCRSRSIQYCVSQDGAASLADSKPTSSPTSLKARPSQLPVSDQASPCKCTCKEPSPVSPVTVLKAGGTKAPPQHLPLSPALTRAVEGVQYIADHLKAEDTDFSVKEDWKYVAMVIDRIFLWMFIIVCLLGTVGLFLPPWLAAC
T2 sequence (P12390 25-500): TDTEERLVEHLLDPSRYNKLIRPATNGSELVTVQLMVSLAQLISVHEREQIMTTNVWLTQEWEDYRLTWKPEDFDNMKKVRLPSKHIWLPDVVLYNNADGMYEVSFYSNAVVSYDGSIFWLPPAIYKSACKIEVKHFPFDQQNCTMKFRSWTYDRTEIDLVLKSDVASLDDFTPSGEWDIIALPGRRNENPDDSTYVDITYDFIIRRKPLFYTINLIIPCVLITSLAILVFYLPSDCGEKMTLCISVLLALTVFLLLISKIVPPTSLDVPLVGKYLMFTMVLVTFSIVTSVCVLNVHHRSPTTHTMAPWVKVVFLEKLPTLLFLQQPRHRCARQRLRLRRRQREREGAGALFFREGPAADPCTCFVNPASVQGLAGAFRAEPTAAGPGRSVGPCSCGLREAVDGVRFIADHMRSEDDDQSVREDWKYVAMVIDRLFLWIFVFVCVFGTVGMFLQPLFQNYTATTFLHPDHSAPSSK
Method: as §1, §2, §3

rat α3β4 nAChRs = molecular target: T3, rat α3β4 nAChRs (Rattus norvegicus, UniProt P04757+P12392); assay: Voltage-clamp recording in Xenopus oocytes expressing rat α3β4 nAChRs; settings: for recovery of responses to ACh alone after co-application: 5 min washout
T3 construct: expressed in transfected cells; host or cells: Xenopus laevis oocytes injected with subunit cRNAs
T3 sequence (P04757 26-499): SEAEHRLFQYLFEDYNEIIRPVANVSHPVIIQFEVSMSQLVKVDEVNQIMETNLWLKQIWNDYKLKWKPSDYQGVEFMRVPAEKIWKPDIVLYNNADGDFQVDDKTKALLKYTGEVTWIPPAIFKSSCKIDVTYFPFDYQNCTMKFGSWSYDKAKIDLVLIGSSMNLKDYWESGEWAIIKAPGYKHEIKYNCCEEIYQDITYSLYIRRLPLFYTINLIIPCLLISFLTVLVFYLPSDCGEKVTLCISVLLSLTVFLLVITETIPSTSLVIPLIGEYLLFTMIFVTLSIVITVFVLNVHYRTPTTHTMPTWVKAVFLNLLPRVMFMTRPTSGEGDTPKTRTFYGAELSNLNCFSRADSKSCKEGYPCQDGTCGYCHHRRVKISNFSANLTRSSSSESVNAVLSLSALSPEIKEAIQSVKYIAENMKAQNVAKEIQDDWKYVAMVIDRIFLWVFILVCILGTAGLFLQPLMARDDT
T3 sequence (P12392 21-495): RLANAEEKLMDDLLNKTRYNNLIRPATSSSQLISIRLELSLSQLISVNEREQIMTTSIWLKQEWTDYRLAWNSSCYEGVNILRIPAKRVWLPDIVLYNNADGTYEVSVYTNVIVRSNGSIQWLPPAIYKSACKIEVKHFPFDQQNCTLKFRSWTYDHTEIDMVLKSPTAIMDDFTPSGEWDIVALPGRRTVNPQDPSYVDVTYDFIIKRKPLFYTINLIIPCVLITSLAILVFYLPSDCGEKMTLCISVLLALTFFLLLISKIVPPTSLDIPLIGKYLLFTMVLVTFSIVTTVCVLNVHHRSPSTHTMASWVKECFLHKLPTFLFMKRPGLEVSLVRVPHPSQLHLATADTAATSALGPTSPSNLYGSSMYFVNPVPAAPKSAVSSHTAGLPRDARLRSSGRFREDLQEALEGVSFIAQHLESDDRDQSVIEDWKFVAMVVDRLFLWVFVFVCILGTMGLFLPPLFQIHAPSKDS
Method: as §1, §2, §3

[1] = molecular target: T4, native α7 receptors on rat hippocampal interneurons (Rattus norvegicus, UniProt Q05941); assay: Patch-clamp recording of ACh-evoked responses of hippocampal interneurons in brain slices; settings: 1 μM bath-applied; for reduction of ACh-evoked responses: 1 mM ACh
T4 construct: Native α7 Receptors on Rat Hippocampal Interneurons; from tissue; host or cells: interneurons of CA1 stratum radiatum in fresh rat brain slices
T4 sequence (Q05941 23-502): as the sequence (Q05941 23-502) above
Method: (§4) All procedures involving rats were approved by the University of Florida IACUC and were in accord with the NIH Guide for the Care and Use of Laboratory Animals. Male Sprague Dawley rats (post-natal day 12-25) were anesthetized with Halothane (Halocarbon Laboratories, River Edge N.J.) and swiftly decapitated. Transverse ([…]) whole brain slices were prepared using a vibratome (Pelco, Redding, Calif.) and then placed in a high Mg^2+/low Ca^2+ ice-cold artificial cerebral spinal fluid (ACSF) containing (in mM) 124 NaCl, 2.5 KCl, 1.2 NaH2PO4, 2.5 MgSO4, 10 D-glucose, 1 CaCl2, and 25.9 NaHCO3, saturated with 95% O2-5% CO2. Slices were incubated at 30° C. for 30 minutes and then left at room temperature until they were transferred to a submersion chamber (Warner Instruments, Hamden, Conn.) for recording. During experiments, slices were perfused at a rate of 2 ml/min with normal ACSF containing (in mM) 126 NaCl, 3 KCl, 1.2 NaH2PO4, 1.5 MgSO4, 11 D-glucose, 2.4 CaCl2, 25.9 NaHCO3, and 0.004 atropine sulfate, saturated with 95% 02-5% CO2 at 30° C. Cells were visualized with infrared differential interference contrast microscopy using a Nikon E600FN microscope. Patch-clamp recording pipettes were pulled from borosilicate glass (Sutter Instruments, Novato, Calif.) using a Flaming/Brown micropipette puller (P-97; Sutter Instruments, Novato, Calif.). Recording pipettes were filled with an internal solution of (in mM) 125K-gluconate, 1 KCl, 0.1 CaCl2, 2 MgCl2, 1 EGTA, 2 MgATP, 0.3 Na3GTP, and 10 HEPES (pH adjusted to 7.3 with KOH). The resistance of the recording pipette when filled with the internal solution was 3-5 MΩ. Cells were held at −70 mV, and a −10 in V/10 ms test pulse was used to determine access resistance, input resistance, and whole-cell capacitance. Cells with access resistances >60 MΩ or those requiring holding currents >200 pA were not included in the final analyses. Signals were digitized using an Axon Digidata1322A and sampled at 20 kHz on a Dell computer using Clampex version 8 or 9. Data analysis was done with Clampfit version 8 or 9 (Axon Instruments, Union City, Calif.), Excel 2000 (Microsoft, Seattle, Wash.), and GraphPad/Prism version 4.02 (Graphpad Software, San Diego, Calif.). Data are reported as mean±SEM. Statistical analyses were performed using two-tailed Student's t-test and one-way analysis of variance (ANOVA).
(§5) Single-barrel pipettes were pulled from borosilicate glass with an outer diameter (o.d.) and inner diameter (i.d.) of 1.5 mm and 0.86 mm, respectively (Sutter Instrument, Novato, Calif.). Pipette opening size of the single barrel was typically 2-3 μm. Double-barrel pipettes were pulled from borosilicate theta glass with an o.d. of 1.5 mm; pipette opening size was around 3-4 μm. The application pipette was usually placed within 10-15 μm of the cell soma.
(§6) In experiments in which AQA analogs were bath-applied, for each cell, four ACh baseline-evoked responses were recorded before bath application of the antagonist. ACh-evoked responses were then recorded for 13-22 min in the presence of the AQA analog. Each analog was bath-applied at a final concentration of 1 μm. In some septum experiments, dihydro-β-erythroidine (DHβE) was also bath-applied at a final concentration of 1 μm.
Stable ACh-evoked responses were obtained from hippocampal interneurons in fresh brain slices and then applied 1 μM tPyQB, tPy2PiB, or tkP3BzPB to the bath. […]

[2] = system: Type II cells in rat medial septum; assay: Patch-clamp recording of ACh-evoked responses of medial septal neurons, Type II cells
Method: as §4, §5, §6
Neurons in rat medial septum vary in their nAChR-mediated responses. Some neurons (Type I cells) have relatively fast transient ACh-evoked responses, while others (Type II cells) have slower ACh-evoked responses (Thinschmidt et al., 2005a).

[3] = system: Type I cells in rat medial septum; assay: Patch-clamp recording of ACh-evoked responses of medial septal neurons, Type I cells
Method: as §4
Single-barrel pipettes were pulled from borosilicate glass with an outer diameter (o.d.) and inner diameter (i.d.) of 1.5 mm and 0.86 mm, respectively (Sutter Instrument, Novato, Calif.). […]
In experiments in which AQA analogs were bath-applied, for each cell, four ACh baseline-evoked responses were recorded before bath application of the antagonist. ACh-evoked responses were then recorded for 13-22 min in the presence of the AQA analog. […]

[4] = 1 mM ACh+300 μM tkP3BzPB pressure co-application

SMILES: Cc1cccc[n+]1CCCC#Cc1cc(C#CCCC[n+]2ccccc2C)cc(C#CCCC[n+]2ccccc2C)c1 [tPy2PiB, 1,3,5,-tri-{5-[1-(2-picolinium)]-pent-1-yn-1-yl}benzene tribromide]
- inhibition of net charge responses (rat α7 nAChRs; 3 μM tPy2PiB, holding potential −40 mV): no significant inhibition
- Imax of ACh concentration-response in the presence of antagonist (rat α7 nAChRs; 3 μM tPy2PiB, net charge): 0.84±0.02
- recovery of responses to ACh alone after co-application (rat α7 nAChRs): recovered fully
- IC50 (rat α7 nAChRs; read-out: IC50 values, α7): 6.3 ± 0.6 µM
- inhibition at 3 µM (rat α7 nAChRs; read-out: inhibition of net charge responses, 3 μM tPy2PiB, holding potential −80 mV): 43 ± 3%
- effect of voltage on inhibition of α7 receptors (rat α7 nAChRs): significant effect of voltage
- IC50 (rat α4β2 nAChRs): 103 ± 25 µM
- recovery of responses to ACh alone after co-application (rat α4β2 nAChRs): recovered fully
- IC50 (rat α3β4 nAChRs): 10 ± 1.4 µM
- recovery of responses to ACh alone after co-application (rat α3β4 nAChRs): recovered fully
- reduction of ACh-evoked responses [1]: no significant reduction

SMILES: C(#Cc1cc(C#CCCC[n+]2cccc3ccccc32)cc(C#CCCC[n+]2cccc3ccccc32)c1)CCC[n+]1cccc2ccccc21 [tPyQB, 1,3,5-tri-[5-(1-quinolinum)-pent-1-yn-1-yl]-benzene tribromide]
- Imax of ACh concentration-response in the presence of antagonist (rat α7 nAChRs; 300 nM tPyQB, net charge): 0.40±0.01
- inhibition of 60 μM ACh-evoked responses (rat α7 nAChRs; 1 μM): completely inhibit
- inhibition at 1 µM (rat α7 nAChRs; cells held at −40 mV): 83 ± 2%
- inhibition at 1 µM (rat α7 nAChRs; −80 mV): 97.7 ± 0.1%
- recovery of responses to ACh alone after co-application (rat α7 nAChRs): recovered fully
- IC50 (rat α7 nAChRs; read-out: IC50 values, α7): 0.13 ± 0.02 µM
- effect of voltage on inhibition of α7 receptors (rat α7 nAChRs): significant effect of voltage
- IC50 (rat α4β2 nAChRs): 4.1 ± 1 µM
- recovery of responses to ACh alone after co-application (rat α4β2 nAChRs): recovered fully
- IC50 (rat α3β4 nAChRs): 1 ± 0.1 µM
- recovery of responses to ACh alone after co-application (rat α3β4 nAChRs): recovered fully
- reduction of ACh-evoked responses [1]: effectively reduced

SMILES: CO[C@H]1CC=C2CCN3CCC4=C(CC(=O)OC4)[C@]23C1 [DHβE, dihydro-β-erythroidine, reference compound]
- blockade of residual ACh-evoked responses following tkP3BzPB bath application ([2]; 1 μM DHβE bath-applied): largely sensitive to DHβE blockade

- inhibition of 60 μM ACh-evoked responses (rat α7 nAChRs; 100 nM, typical co-application protocol): virtually no inhibition
- use-dependence of persistent inhibition (rat α7 nAChRs; 3 μM for 20 s with or without 60 μM ACh, 5 minute washout): not use-dependent
- recovery time constant (rat α7 nAChRs; after 1 μM co-applied with 60 μM ACh): 26.6 ± 0.8 min
- IC50 (rat α7 nAChRs; after 5 minutes wash following application at increasing concentrations, read-out: IC50 estimated for recovery data): 1.9 ± 0.7 µM
- time constant of recovery (rat α7 nAChRs; after application of 3 μM alone, repeated applications of 60 μM ACh): 76 ± 3 min
- inhibition at 0.1 µM (rat α7 nAChRs; read-out: inhibition of the ACh-evoked responses): ~80%
- IC50 (rat α7 nAChRs; simple co-application with 60 μM ACh, net charge, read-out: IC50 values, α7): 1 ± 0.1 µM
- effect of voltage on inhibition of α7 receptors (rat α7 nAChRs): no significant difference
- IC50 (rat α4β2 nAChRs): 48 ± 11 µM
- recovery of responses to ACh alone after co-application (rat α4β2 nAChRs): no significant residual inhibition
- IC50 (rat α3β4 nAChRs): 9.2 ± 1.2 µM
- recovery of responses to ACh alone after co-application (rat α3β4 nAChRs): no significant residual inhibition
- reduction of ACh-evoked responses [1]: effectively reduced
- baseline net charge response remaining after bath application ([1]; 1 mM ACh pressure application): 0.4±0.7%
- baseline peak response remaining after bath application ([1]; 1 mM ACh pressure application): 4±0.2%
SMILES: c1ccc(Cc2ccc[n+](CCCCCc3cc(CCCCC[n+]4cccc(Cc5ccccc5)c4)c(CCCCC[n+]4cccc(Cc5ccccc5)c4)cc3CCCCC[n+]3cccc(Cc4ccccc4)c3)c2)cc1 [tkP3BzPB, 1,2,4,5-tetra-{5-[1-(3-benzyl)pyridinium]pent-1-yl}benzenetetrabromide]
- recovery of responses to ACh alone after co-application (rat α7 nAChRs): decreasing recovery with increasing tkP3BzPB concentrations
- initial evoked response remaining (peak amplitude) after bath application ([3]; 1 μM bath-applied): 12±0.6%
- net-charge evoked response after bath application ([3]; 1 μM bath-applied): fully abolished
- average baseline net charge response after co-application [3, 4]: 68±9%
- average baseline peak response after co-application [3, 4]: 72±6%
- baseline response (peak amplitude) at the end of the application ([2]; 1 μM bath-applied): 59±1%
- net-charge evoked response, of the baseline response, after bath application ([2]; 1 μM bath-applied): 79±2%
- average baseline net charge response after co-application [2, 4]: 93±10%
- average baseline peak response after co-application [2, 4]: 86±5%

Source: patent US20130231366A1, “Use of a Novel Alpha-7 Nachr Antagonist to Suppress Pathogenic Signal Transduction in Cancer and Aids” (UNIVERSITY OF KENTUCKY RESEARCH FOUNDATION, priority 2008, published 2013)
